Patent US9168243B2, “Pharmaceutical compositions comprising 8-substituted dibenzylbutyrolactone lignans” (priority 2010, dated 2015)
Entries after “also recorded” stand apart in the source; their conditions may differ.

What was measured:
[1] = tested on: LNCaP prostate cancer cells; assay: Flow cytometric screen for sensitization to TRAIL-induced apoptosis (nuclear fragmentation by propidium iodide, mitochondrial depolarization by TMRM); assay type: cell-based; conditions: for capacity to sensitize LNCaP prostate cancer cells to TRAIL-induced apoptosis: androgen-deprived, 40 μM lignan 1 hour before 10 ng/ml izTRAIL, 20 hours
Description: (§1) Flow cytometric analysis of apoptosis with HTS platform was performed on cells that were plated on a 96-well plate as triplicate samples. After 24 hours in androgen-deprived conditions, the cells were pretreated with 40 μM lignans or lignan derivatives for 1 hour prior to addition of 10 ng/ml izTRAIL. Twenty hours later the plate was centrifuged with a culture plate rotor (1000 rpm, 3 minutes). For analysis of nuclear fragmentation, propidium iodide (PI) buffer (40 mM Na-citrate, 0.3% Triton X-100, 50 μg/ml PI; Sigma) was added to the wells. After 10 minutes incubation at room temperature, the plate was analyzed with LSRII flow cytometer equipped with HTS platform (PE-A channel). The fraction of sub-G0/G1 events (nuclear fragmentation) was gated as a measure of apoptotic cell death. For detection of mitochondrial depolarization, the cells were detached by trypsinization of the cells and incubated in 20 nM tetramethylrhodamine (TMRM; Invitrogen) in warm culture medium for 10 minutes before analysis. The plate was analyzed with LSRII flow cytometer equipped with HTS platform (FSC, PE-A channel). The cells with decreased TMRM incorporation were considered to have undergone mitochondrial membrane depolarization. Activated caspase-3 in cells was labeled with phycerythrin (PE)-conjugated antibody according to manufacturer's protocol (BD Pharmingen) and analyzed by FacsCalibur flow cytometer (FL-2, FSC).
LNCaP cells were cultured in the absence of 1 nM androgen and incubated with lignan compounds (40 μM) for 1 hour before izTRAIL treatment (10 ng/ml) or control for 20 hours. The samples were screened for nuclear fragmentation by propidium iodide labeling (FIG. 1A) or mitochondrial depolarization by TMRM labeling (FIG. 1B). The plates were analyzed with LSRII flow cytometer equipped with HTS platform (FSC, PE-A channels). The fraction of sub-G0/G1 events (nuclear fragmentation; PE-A channel) was gated as a measure of apoptotic cell death (FIG. 1A) and the cells with decreased TMRM incorporation (PE-A channel) were considered to have undergone mitochondrial membrane depolarization (FIG. 1B). Representative histograms and dot blots for control, TRAIL, nortrachelogenin (NTG) and NTG+TRAIL treatments are viewed.
Importantly, substitution with methyl group at position 8 further increases activity of dibenzylbutyrolactone lignans in sensitization of LNCaP prostate cancer cells to TRAIL-mediated apoptosis (FIG. 8). LNCaP cells were cultured in the absence of 1 nM androgen and incubated with indicated lignan compounds (40 μM) for 1 hour before izTRAIL treatment (10 ng/ml) or control for 20 hours. The cells were disrupted and the nuclei labeled for DNA content with propidium iodide. The samples were analyzed by flow cytometry and the fraction of sub-G0/G1 events (nuclear fragmentation) was detected as a measure of apoptotic cell death (mean±SEM; n=4). (FIG. 8A). Alternatively, LNCaP cells (+/−1 nM androgen) were incubated with 0-100 μM 8-Me-MAT for 1 hour after which total cell lysates were prepared and the samples were analyzed by Western blotting for Akt and phospho-Akt(ser473) expression.

[2] = tested on: phospho-Akt(ser473); assay: Western blot of Akt / phospho-Akt(ser473); assay type: cell-based; conditions: LNCaP +/- 1 nM androgen; 0-100 μM lignan, 1 hour (NTG also 100 μM, 0-8 hours)
Description: Whole cell lysates were prepared by lysing floating and attached cells in Laemmli sample buffer and boiling the samples for 10 minutes. Proteins were separated by SDS-PAGE and transferred on PVDF membrane (Millipore). Western blotting was performed using antibodies against Akt, phospho-Akt (Ser473), GSK-3β, phospho-GSK-3β (Ser9) and phospho-EGF receptor Tyr(1068) (Cell Signalling Technology), Actin (clone AC-40; Sigma-Aldrich), PI3K p85α (clone 4/PI3-Kinase; BD Pharmingen), EGF receptor, Insulin receptor β and IGF-I receptor β (Santa Cruz Biotechnology), and Phospho-tyrosine (clone 4G10; Millipore). HRP-conjugated secondary antibodies were from Southern Biotechnology Associates, Promega, and Amersham Biosciences. The results were visualized using the ECL method (Amersham Biosciences) on x-ray film. The presented Western blot results are representative of at least three independent experiments. Densitometric analysis of Western blots was done using scanned films with the MCID M5+ software. The values were normalized to the untreated control sample, which was given the value 1. The histograms in FIG. 4 present a relative decrease in ratio of phosphorylated vs. non-phosphorylated protein compared to control cells.
LNCaP cells (+/−1 nM androgen) were treated with 0-100 μM enterolactone (ENL), matairesinol (MAT) or NTG for 1 hour prior to preparation of total cell lysates (FIG. 4A). The relative decrease in pAkt/Akt ratio was quantified from western blot analysis with Akt (60 kDa) and phospho-Akt(ser473) (Mean±SEM; n=4; Student's t-test *p<0.05, **p<0.01). Alternatively, androgen-deprived LNCaP cells were incubated with 100 μM NTG for 2 hours, fixed and labeled with Akt antibody followed by Alexa 546-conjugated secondary antibody. The samples were viewed at LSM 510 confocal microscope (63× oil objective, 543 nm excitation) (FIG. 4B). To examine the time-dependence of the observed inhibitory effect, LNCaP cells (+/−1 nM androgen) were incubated with 100 μM NTG for 0-8 hours after which total cell lysates were prepared. The western blot analysis with Akt, phospho-Akt(ser473), GSK-3β and phospho-GSK-3β(ser9) was quantified. The histogram presents a relative decrease in pAkt/Akt ratio (FIG. 4C.) or pGSK-3β/GSK-3β ratio (FIG. 4D.) compared to control cells (Mean±SEM; n=3). […]
Importantly, substitution with methyl group at position 8 further increases activity of dibenzylbutyrolactone lignans in sensitization of LNCaP prostate cancer cells to TRAIL-mediated apoptosis (FIG. 8). […] The samples were analyzed by flow cytometry and the fraction of sub-G0/G1 events (nuclear fragmentation) was detected as a measure of apoptotic cell death (mean±SEM; n=4). […]

[3] = tested on: phospho-Akt(ser473); conditions: reported earlier; cited from earlier work
[4] = in vivo; cited from earlier work
[5] = tested on: LNCaP cells; assay: Caspase-3 activation by flow cytometry, TRAIL with or without NTG; assay type: cell-based; conditions: TRAIL alone, 20 h
Description: as §1
As NTG was identified as the most efficient TRAIL-sensitizing lignan, we analyzed the ability of NTG to affect the efficacy of different TRAIL concentrations in triggering of caspase-3 activation (FIG. 2A). The TRAIL resistant LNCaP cells were cultured in androgen-supplied and androgen-deprived conditions to simulate the effects of androgen-deprivation therapy, and treated for 20 h with TRAIL alone or with the combination of 40 μM NTG and TRAIL. The percentage of cells with activated caspase-3 increased from maximum of 15% to 60% for androgen-deprived, and from 13% to 30% for androgen-supplied cells (Mean±SEM; n≧3) (FIG. 2A).

[6] = tested on: LNCaP cells; assay: Clonogenic assay; assay type: cell-based; conditions: 11 days; 10 ng/ml TRAIL or 40 μM NTG alone
Description: Five hundred LNCaP cells were plated in 1 ml of culture medium and let to adhere prior to addition of the indicated treatments. After 11 days of incubation, cell colonies were fixed with glutaraldehyde (6.0% v/v), stained with crystal violet (0.5% w/v) and imaged using a digital camera.
To investigate the effects of NTG alone and in combination with TRAIL on colony formation ability, the LNCaP cells were plated in low confluency and treated for 11 days.

COc1cc(CC2COC(=O)C2(C)Cc2ccc(O)c(OC)c2)ccc1O (stereo not shown) [8-Me-MAT, 8-Methylmatairesinol]
capacity to sensitize LNCaP prostate cancer cells to TRAIL-induced apoptosis [1]: increased capacity to sensitize LNCaP prostate cancer cells to TRAIL-mediated apoptosis | Akt phosphorylation (pAkt/Akt ratio) [2]: strongly inhibitory effect on Akt phosphorylation; also recorded: inhibit Akt phosphorylation yet more efficiently than ENL or MAT

COc1ccc(CC2COC(=O)C2(C)Cc2ccc(OC)c(OC)c2)cc1OC (stereo not shown) [8-Me-dimethylmatairesinol, 8-Methyldimethylmatairesinol]
capacity to sensitize LNCaP prostate cancer cells to TRAIL-induced apoptosis [1]: clearly enhances the activity

O=C1OC[C@H](Cc2cccc(O)c2)[C@H]1Cc1cccc(O)c1 [ENL, Enterolactone]
Akt phosphorylation in prostate cancer cells [3]: can reportedly inhibit Akt phosphorylation

COc1cc(C[C@H]2COC(=O)[C@@H]2Cc2ccc(O)c(OC)c2)ccc1O [MAT, Matairesinol, reference compound]
increase of the apoptotic response compared to TRAIL alone (factor) ([1]; lignan in combination with TRAIL): 2.5 | Akt phosphorylation in prostate cancer cells [3]: can reportedly inhibit Akt phosphorylation | conversion into the mammalian lignans [4]: converted to ENL in the digestive tract

TRAIL
percentage of cells with activated caspase-3 (maximum) ([5]; androgen-deprived LNCaP): 15% | percentage of cells with activated caspase-3 (maximum) ([5]; androgen-supplied LNCaP): 13% | colony formation ability, single agent [6]: not able to inhibit LNCaP growth
